Experimental data from patent US20080033031A1, “ANTIBIOTIC COMPOUNDS, COMPOSITIONS AND METHODS OF TREATMENT” (priority 2004, published 2008).
Converted amounts (≈) assume the structure as drawn. Where two headings read alike, the source gives them in different places.

Legend:
P. acnes ATCC 11827 = test: MIC against P. acnes ATCC 11827; assay type: cell-based, Propionibacterium acnes
Experimental: (§1) The microbiological activity of clindamycin analogs was evaluated by measuring the minimum inhibitory concentrations (MIC) of each compound against Staphylococcus aureus (S. aureus) and Propionibacterium acnes (P. acnes). These two microorganisms were selected, as they are commonly known to be the contributing factors for acne. The compounds evaluated were the following: • a. […] Clindamycin sulfone (CSO2) and its salts • d. Clindamycin phosphate • e.

S. aureus ATCC 29213 = test: MIC against S. aureus ATCC 29213; assay type: cell-based, Staphylococcus aureus
Experimental: as §1

[1] = Stability studies with benzoyl peroxide in buffer solutions; assay type: physicochemical; settings: 1% analog with 5% BPO, pH 3 buffer, 50° C.
Experimental: The concentrations of each of the clindamycin analogs and BPO in the mixtures were 1% (w/w) and 5% (w/w), respectively.
Samples were prepared by dissolving each of the clindamycin analogs and suspending the BPO powder in the buffer solutions of different pHs. Samples were placed either at RT or at 50° C. Samples were pulled at time intervals and tested for the appropriate clindamycin analog and pH.
The figures show the plots of the percent remaining (% of initial) of the clindamycin analog versus time. The percent of initial is obtained by normalizing the concentration at each time point to the initial concentration.

S. aureus ATCC 6538 = test: MIC against S. aureus ATCC 6538; assay type: cell-based; settings: Staphylococcus aureus, ATCC6538
Experimental: as §1

P. acnes ATCC 1127 = test: MIC against P. acnes ATCC 1127; assay type: cell-based, Propionibacterium acnes; settings: Cutibacterium acnes, ATCC1127
Experimental: as §1

[2] = Cutibacterium acnes, ATCC11827, read-out: MIC
[3] = Staphylococcus aureus, ATCC29213, read-out: MIC

For `CCCC1CC(C(=O)NC(C(C)Cl)C2OC(S(C)(=O)=O)C(O)C(O)C2O)N(C)C1.Cl` (centres unmarked) [CSO2 HCl], the MIC (P. acnes ATCC 11827) was 0.5 µg/mL and the MIC (S. aureus ATCC 29213) was 1 µg/mL.

`CCCC1CC(C(=O)NC(C(C)Cl)C2OC(S(C)(=O)=O)C(O)C(O)C2O)N(C)C1.O=S(=O)(O)O` (centres unmarked) [CSO2 sulfate] showed an MIC (P. acnes ATCC 11827) of 0.5 µg/mL and an MIC (S. aureus ATCC 29213) of 1 µg/mL.

For `CCC[C@@H]1CC(C(=O)NC(C(C)Cl)[C@H]2O[C@H](S(C)(=O)=O)[C@H](O)[C@@H](O)[C@H]2O)N(C)C1` (some centres unmarked) [CSO2, Clindamycin sulfone], the MIC (P. acnes ATCC 11827; [2]) was 0.5 to 1 µg/mL (≈ 1.09 to 2.19 µM), the “remained in the solution (% of initial)” value ([1]; after 8 weeks of storage) was “about 85%” and the “remaining in the samples (% of initial)” value ([1]; after 12 weeks of storage) was “about 70%”. It also gave an MIC (S. aureus ATCC 29213; [3]) of 1 to 2 µg/mL (≈ 2.19 to 4.38 µM).

Molecule `CCC[C@@H]1C[C@@H](C(=O)N[C@@H]([C@H]2O[C@H]([S+](C)[O-])[C@H](O)[C@@H](O)[C@H]2O)[C@H](C)Cl)N(C)C1.Cl` (some centres unmarked) [CSO A HCl] has an MIC (P. acnes ATCC 11827) of 8 µg/mL and an MIC (S. aureus ATCC 29213) of 16 µg/mL.

`CCCC1CC(C(=O)NC(C(C)Cl)C2OC([S+](C)[O-])C(O)C(O)C2O)N(C)C1.O=C(O)C=CC(=O)O` (centres unmarked) [CSO A fumarate] gave an MIC (P. acnes ATCC 11827) of 8 µg/mL and an MIC (S. aureus ATCC 29213) of 16 µg/mL.

For `CCCC1CC(C(=O)NC(C(C)Cl)C2OC([S+](C)[O-])C(O)C(O)C2O)N(C)C1.O=C(O)C=CC(=O)O` (centres unmarked) [CSO A maleate], the MIC (P. acnes ATCC 11827) was 16 µg/mL and the MIC (S. aureus ATCC 29213) was 16 µg/mL.

In the case of `CCCC1CC(C(=O)NC(C(C)Cl)C2OC([S+](C)[O-])C(O)C(O)C2O)N(C)C1.O=C(O)CCC(=O)O` (centres unmarked) [CSO A succinate], the MIC (P. acnes ATCC 11827) is reported as 16 µg/mL and the MIC (S. aureus ATCC 29213) is reported as 16 µg/mL.

For `CCCC1CC(C(=O)NC(C(C)Cl)C2OC([S+](C)[O-])C(O)C(O)C2O)N(C)C1.Cl` (centres unmarked) [CSO B HCl], the MIC (P. acnes ATCC 11827) was 0.5 µg/mL and the MIC (S. aureus ATCC 29213) was 2 µg/mL.

In the case of `CCCC1CC(C(=O)NC(C(C)Cl)C2OC([S+](C)[O-])C(O)C(O)C2O)N(C)C1.O=C(O)c1ccccc1` (centres unmarked) [CSO B benzoate], the MIC (P. acnes ATCC 11827) is reported as 0.5 µg/mL and the MIC (S. aureus ATCC 29213) is reported as 2 µg/mL.

`CCCC1CC(C(=O)NC(C(C)Cl)C2OC([S+](C)[O-])C(O)C(O)C2O)N(C)C1.O=C(O)CC(O)(CC(=O)O)C(=O)O` (centres unmarked) [CSO B citrate] gave an MIC (P. acnes ATCC 11827) of 0.5 µg/mL and an MIC (S. aureus ATCC 29213) of 2 µg/mL.

`CCCC1CC(C(=O)NC(C(C)Cl)C2OC([S+](C)[O-])C(O)C(O)C2O)N(C)C1.O=C(O)C=CC(=O)O` (centres unmarked) [CSO B fumarate] gave an MIC (P. acnes ATCC 11827) of 0.5 µg/mL and an MIC (S. aureus ATCC 29213) of 2 µg/mL.

`CCC[C@@H]1C[C@@H](C(=O)N[C@@H]([C@H]2O[C@H](SC)[C@H](OP(=O)(O)O)[C@@H](O)[C@H]2O)[C@H](C)Cl)N(C)C1` [Clindamycin phosphate USP, Clindamycin phosphate, reference compound] gave an MIC (P. acnes ATCC 11827; [2]) of 2 to 4 µg/mL, an MIC (S. aureus ATCC 6538) of 200 µg/mL and an MIC (P. acnes ATCC 1127) of 200 µg/mL. The MIC (S. aureus ATCC 29213; [3]) was 16 to 32 µg/mL.

For `CC[C@H]1OC(=O)[C@H](C)[C@@H](O[C@H]2C[C@@](C)(OC)[C@@H](O)[C@H](C)O2)[C@H](C)[C@@H](O[C@@H]2O[C@H](C)C[C@H](N(C)C)[C@H]2O)[C@](C)(O)C[C@@H](C)C(=O)[C@H](C)[C@@H](O)[C@]1(C)O` [Erythromycin USP, Erythromycin, reference compound], the MIC (P. acnes ATCC 11827; [2]) was 0.062 µg/mL (≈ 0.0845 µM), the MIC (S. aureus ATCC 6538) was < 0.8 µg/mL and the MIC (P. acnes ATCC 1127) was 1.6 µg/mL (≈ 2.18 µM). For the same molecule, the MIC (S. aureus ATCC 29213; [3]) was 0.25 to 0.5 µg/mL (≈ 0.341 to 0.681 µM).
